Laboratory results: US20250297036A1, “METHOD FOR CO[…]-DERIVED PEPTIDE-NUCLEIC ACID HYBRID MOLECULES ON BASIS OF IN VITRO SELECTION” (priority 2022, published 2025)

Tests used:
[1] = tested on: pseudotype SARS-CoV-2; type: cell-based
[2] = target: SARS-CoV-2 RBD (Severe acute respiratory syndrome coronavirus 2, UniProt P0DTC2)
[3] = target: SARS-CoV-2 RBD, wild type (SARS-CoV-2), P0DTC2
[4] = target: SARS-CoV-2 spike protein on GFP-reporting pseudotype SARS-CoV-2 (SARS-CoV-2), P0DTC2; experiment: cell-based or functional assay

Molecule: LGKGDFR [LGKGDFR peptide]
- infection rate with pseudotype SARS-CoV-2 (percentage of infected cells) [1]: 12.6%

Molecule: R7-02 (GGAAGAGATGGCGACACGCAATCGTGGGTTGGGGATATAATGGTAAGCTGATCCTGATGG; 5' hexynyl group, further chemistry not given here)
- infection rate with pseudotype SARS-CoV-2 (percentage of infected cells) [1]: 1.9%
- competition with P05DHu and AM122 antibodies [2]: insignificant

Molecule: LGKGDFRK (modifications not checked) [LGKGDFR peptide (hACE2-derived hotspot peptide, not conjugated to DNA)]
- % inhibition of RBD-hACE2 interaction [3]: 11.7%
- infection rate with pseudotype SARS-CoV-2 (GFP-expressing hACE2-293T cells) [4]: 12.6%
